Measurements as given in publication PMC7822819, “Discovery of a new class of integrin antibodies for fibrosis” (Scientific Reports, 2021).
Read-outs that look alike come from different tables or passages of the source.

Tests used:
CHOK1-α5KO-mαvβ1 cells = target: T1, CHOK1-α5KO-mαvβ1 cells (Mus musculus, UniProt P09055+P43406); test: Cell adhesion assay (Epic) on fibronectin; format: cell-based; conditions: in words
T1 construct: expressed in transfected cells; host or cells: CHOK1 with endogenous hamster α5 deleted by CRISPR
Protocol: For plate preparation, Epic 384-well assay plates (Corning #5040) were washed with OptiMEM (Gibco #31985-070) and coated with murine fibronectin (Abcam #ab92784) at a concentration of 0.1 μg/well for CHO-a5KO-mαvβ1 cells; murine vitronectin (Abcam #ab92727) at 0.075 μg/well for CHO-mαvβ3 cells; or murine vitronectin at 0.125 μg/well for CHO-mαvβ5 (all at a volume of 25 μl/well in OptiMEM), for 1 h. Coating solution was then removed by flicking and plates were washed with OptiMEM and blocked with 25 μl/well of assay buffer [1% Ovalbumin (Sigma #A5503-10G) in OptiMEM containing 1X Pen-Strep (Gibco #15140-148)]. A 5-min baseline reading was taken on a Corning Epic Plate Reader (Model: Epic BT-157900) before removing the assay buffer and adding cells pre-incubated with inhibitors. The Epic plate reader detects cellular mass redistribution (adhesion) on the plate surface as a picometer wavelength shift over time. […] Cells were incubated with the inhibitors for 1 h at RT with gentle rocking, after which 50 μL per well was transferred to the Epic assay plate, and a time course of cell adhesion was monitored for an additional 3 h.

mouse αvβ6 = target: T2, mouse αvβ6 (Mus musculus, UniProt P43406+Q9Z0T9); test: Latent TGFβ activation assay (TMLC / CHOK1-integrin co-culture, PAI-1 luciferase); format: cell-based; conditions: in words
T2 construct: expressed in transfected cells
Protocol: Transfected mink lung epithelial cell (TMLC) cell line containing the TGFβ responsive PAI-1 promoter driving luciferase expression[29] and the CHO-K1 human and mouse αvβx integrin cell lines were grown under optimized growth conditions to 90% confluency. TMLC cells were trypsinized and plated at 25,000 cells/well in 50 μL in Costar clear bottom white walled plates. In a separate plate, 25 μL of serially diluted antibodies at 4X concentration were added to wells containing 25 μL of either 25,000 cells of human or mouse αvβx cells. After a brief mixing, the 50 μL mixture was transferred to the TMLC cell plates for a total volume of 100 μL and incubated at 37 °C for 16 h. 100 μL of ONE-Glo kit (#PRE6120) was added to each well and read after 3–5 min on the Envision plate reader.

human αvβ1 = human αvβ1 (Homo sapiens, UniProt P05556+P06756); test: AlphaLISA integrin-ligand binding assay; format: biochemical; set-up: hαV 1 992; hβ1 1 728; made in house; host or cells: Expi293
Protocol: In the AlphaLISA integrin assays, we used a HEPES based buffer (25 mM HEPES pH 7.4, 137 mM NaCl, 1 mM MgCl2, 1 mM MnCl2, 2 mM CaCl2, 2.7 mM KCl, and 0.05% Tween-20). Optimal assay conditions were determined with a titration of the reagents for signal noise ratio (S/N), linear range, etc. For the respective integrins, we used the final concentrations described in Supplemental Table S3. Briefly, the testing antibody (8 μL) was added as a 4x (of Final testing concentration) solution in the HEPES buffer described previously into a 384w AlphaPlate (Perkin Elmer #6005350). Then the integrin and ligand were added sequentially as 8x (4 μL each). Plates were sealed and incubated at room temperature for 2 h. Then 4 × acceptor bead solution (8 μL) was added, and the plates were resealed and incubated at RT for 1 h. Finally, 4 × (8 μL) donor beads solution was added in a darkened room and incubated for 45 min at room temperature. Plates were read on the Envision (Perkin Elmer) in AlphaScreen mode within 3 h of donor bead addition.
Supplemental Table S3. integrin AlphaLIS A assay reagents and conditions Human A l phal i sa Inte gri n A ssays: Fi nal Condi ti ons […]
( batch de pe nde nt) anti body A l phaLi sa A cce ptor havb1 1. 4 nM 1. 0 nMα - Fi brone cti n human Fi brone cti n n/a A cce ptor be ads/ Pe rki n 10. 0 ug/ m 10. 0 ug/ m […]
havb3 3. 0 nM 10. […]

human αvβ1, sequence (P06756 31-992): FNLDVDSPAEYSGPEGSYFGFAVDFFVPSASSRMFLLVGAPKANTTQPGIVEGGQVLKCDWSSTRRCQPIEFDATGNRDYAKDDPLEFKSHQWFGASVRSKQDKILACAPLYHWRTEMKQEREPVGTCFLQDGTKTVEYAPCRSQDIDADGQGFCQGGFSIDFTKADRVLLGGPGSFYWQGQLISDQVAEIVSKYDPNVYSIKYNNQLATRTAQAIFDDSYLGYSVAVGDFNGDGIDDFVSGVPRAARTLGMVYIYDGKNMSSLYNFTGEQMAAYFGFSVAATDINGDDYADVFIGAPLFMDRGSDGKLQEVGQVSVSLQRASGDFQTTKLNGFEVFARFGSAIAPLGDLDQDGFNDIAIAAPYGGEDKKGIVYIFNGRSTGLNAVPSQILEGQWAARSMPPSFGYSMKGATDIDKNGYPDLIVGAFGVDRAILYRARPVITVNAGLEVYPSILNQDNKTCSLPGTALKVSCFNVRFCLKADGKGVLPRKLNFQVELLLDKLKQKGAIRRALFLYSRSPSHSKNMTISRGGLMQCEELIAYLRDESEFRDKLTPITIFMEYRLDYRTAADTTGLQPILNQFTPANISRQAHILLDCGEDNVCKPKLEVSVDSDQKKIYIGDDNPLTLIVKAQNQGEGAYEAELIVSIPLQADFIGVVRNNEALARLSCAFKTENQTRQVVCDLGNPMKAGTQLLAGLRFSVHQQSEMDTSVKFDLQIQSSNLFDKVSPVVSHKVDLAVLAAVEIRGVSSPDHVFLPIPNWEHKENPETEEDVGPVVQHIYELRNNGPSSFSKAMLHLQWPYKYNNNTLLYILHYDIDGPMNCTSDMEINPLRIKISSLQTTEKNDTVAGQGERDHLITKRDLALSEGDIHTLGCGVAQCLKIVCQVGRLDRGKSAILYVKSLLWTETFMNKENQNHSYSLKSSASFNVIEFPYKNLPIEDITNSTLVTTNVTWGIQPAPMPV
human αvβ1, sequence (P05556 21-728): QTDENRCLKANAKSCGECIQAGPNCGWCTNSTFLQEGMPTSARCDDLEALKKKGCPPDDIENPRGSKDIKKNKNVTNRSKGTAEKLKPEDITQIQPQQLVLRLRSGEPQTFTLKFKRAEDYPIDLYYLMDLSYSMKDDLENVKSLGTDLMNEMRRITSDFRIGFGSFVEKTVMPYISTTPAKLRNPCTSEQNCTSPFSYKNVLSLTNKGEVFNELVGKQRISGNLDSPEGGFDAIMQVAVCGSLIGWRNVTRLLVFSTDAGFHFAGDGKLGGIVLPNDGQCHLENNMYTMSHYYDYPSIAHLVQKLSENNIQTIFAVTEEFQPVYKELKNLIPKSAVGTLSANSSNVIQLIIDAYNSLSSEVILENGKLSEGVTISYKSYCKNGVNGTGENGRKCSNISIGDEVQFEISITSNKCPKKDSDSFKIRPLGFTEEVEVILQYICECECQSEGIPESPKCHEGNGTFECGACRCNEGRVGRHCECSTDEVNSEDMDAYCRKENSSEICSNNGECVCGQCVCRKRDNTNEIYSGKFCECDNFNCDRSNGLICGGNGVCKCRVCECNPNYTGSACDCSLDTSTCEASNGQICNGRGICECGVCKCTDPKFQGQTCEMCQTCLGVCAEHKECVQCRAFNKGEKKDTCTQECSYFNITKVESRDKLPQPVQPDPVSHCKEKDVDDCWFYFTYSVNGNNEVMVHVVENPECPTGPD
T2 sequence (P43406 31-1044): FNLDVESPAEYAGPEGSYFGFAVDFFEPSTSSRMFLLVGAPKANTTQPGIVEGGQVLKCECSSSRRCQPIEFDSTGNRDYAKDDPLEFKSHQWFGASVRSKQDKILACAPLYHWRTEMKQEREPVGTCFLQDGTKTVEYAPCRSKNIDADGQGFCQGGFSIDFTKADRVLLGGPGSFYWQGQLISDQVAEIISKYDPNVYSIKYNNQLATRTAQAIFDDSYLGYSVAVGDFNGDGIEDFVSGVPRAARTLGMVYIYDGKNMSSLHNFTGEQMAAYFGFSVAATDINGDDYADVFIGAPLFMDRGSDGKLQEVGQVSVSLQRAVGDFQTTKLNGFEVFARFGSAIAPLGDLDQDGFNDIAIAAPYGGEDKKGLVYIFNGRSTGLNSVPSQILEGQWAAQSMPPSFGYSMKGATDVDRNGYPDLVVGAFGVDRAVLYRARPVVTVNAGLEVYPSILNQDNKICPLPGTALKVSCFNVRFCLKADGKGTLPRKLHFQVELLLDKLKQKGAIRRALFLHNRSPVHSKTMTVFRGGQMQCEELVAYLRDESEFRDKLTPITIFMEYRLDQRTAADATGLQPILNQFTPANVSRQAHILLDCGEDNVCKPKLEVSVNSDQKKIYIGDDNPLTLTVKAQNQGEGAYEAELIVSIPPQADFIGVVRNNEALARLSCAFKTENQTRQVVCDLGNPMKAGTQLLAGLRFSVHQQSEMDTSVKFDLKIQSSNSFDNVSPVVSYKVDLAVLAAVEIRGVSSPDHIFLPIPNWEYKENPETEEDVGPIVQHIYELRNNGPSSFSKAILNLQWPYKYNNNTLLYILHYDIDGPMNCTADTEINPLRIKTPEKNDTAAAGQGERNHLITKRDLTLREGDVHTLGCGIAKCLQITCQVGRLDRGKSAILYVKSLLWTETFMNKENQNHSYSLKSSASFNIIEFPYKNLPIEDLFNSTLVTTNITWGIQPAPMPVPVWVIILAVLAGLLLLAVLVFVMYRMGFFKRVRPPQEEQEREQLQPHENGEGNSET
T2 sequence (Q9Z0T9 22-787): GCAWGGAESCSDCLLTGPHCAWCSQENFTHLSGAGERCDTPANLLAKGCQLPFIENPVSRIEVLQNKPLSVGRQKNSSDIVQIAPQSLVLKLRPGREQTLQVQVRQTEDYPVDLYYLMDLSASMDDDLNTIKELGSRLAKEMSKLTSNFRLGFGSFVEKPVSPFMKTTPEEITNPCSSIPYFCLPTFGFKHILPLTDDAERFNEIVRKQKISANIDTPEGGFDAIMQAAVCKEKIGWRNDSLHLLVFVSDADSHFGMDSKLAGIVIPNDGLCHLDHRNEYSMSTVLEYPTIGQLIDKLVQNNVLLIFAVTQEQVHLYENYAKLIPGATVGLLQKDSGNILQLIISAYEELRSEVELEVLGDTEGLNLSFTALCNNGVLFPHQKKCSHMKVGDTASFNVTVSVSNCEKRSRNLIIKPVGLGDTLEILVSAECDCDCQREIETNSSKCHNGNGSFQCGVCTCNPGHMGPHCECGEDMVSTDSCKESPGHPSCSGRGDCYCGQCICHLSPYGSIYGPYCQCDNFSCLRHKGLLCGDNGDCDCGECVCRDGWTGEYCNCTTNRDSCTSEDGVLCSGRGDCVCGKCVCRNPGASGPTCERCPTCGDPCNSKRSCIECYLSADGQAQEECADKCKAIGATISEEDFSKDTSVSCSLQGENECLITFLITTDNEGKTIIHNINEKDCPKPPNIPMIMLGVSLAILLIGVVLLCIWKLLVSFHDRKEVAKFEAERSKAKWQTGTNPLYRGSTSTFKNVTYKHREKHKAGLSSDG
T1 sequence (P43406 31-1044): as the sequence (P43406 31-1044) above
T1 sequence (P09055 21-798): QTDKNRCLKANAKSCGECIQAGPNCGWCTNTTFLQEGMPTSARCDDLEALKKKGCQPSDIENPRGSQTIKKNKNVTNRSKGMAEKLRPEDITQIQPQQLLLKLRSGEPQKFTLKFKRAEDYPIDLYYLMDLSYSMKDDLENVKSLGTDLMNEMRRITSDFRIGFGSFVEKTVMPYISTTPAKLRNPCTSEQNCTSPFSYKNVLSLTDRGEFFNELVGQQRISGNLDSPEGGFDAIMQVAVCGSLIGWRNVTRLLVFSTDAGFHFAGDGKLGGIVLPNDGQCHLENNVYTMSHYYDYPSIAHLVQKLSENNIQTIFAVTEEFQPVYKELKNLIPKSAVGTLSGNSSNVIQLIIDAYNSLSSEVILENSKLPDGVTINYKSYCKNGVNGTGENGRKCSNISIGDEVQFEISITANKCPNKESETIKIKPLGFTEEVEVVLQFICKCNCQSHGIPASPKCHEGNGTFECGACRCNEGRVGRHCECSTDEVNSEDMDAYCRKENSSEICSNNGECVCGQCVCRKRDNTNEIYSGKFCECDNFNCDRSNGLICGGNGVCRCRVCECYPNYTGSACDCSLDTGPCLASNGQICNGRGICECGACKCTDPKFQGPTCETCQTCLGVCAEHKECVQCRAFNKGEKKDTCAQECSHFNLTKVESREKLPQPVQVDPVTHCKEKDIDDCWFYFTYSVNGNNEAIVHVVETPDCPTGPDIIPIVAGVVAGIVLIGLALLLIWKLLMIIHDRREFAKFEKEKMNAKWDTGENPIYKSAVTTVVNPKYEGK

`COc1ccc(C(CC(=O)O)N2CCN(CCCc3ccc4c(n3)NCCC4)C2=O)cn1` (stereo not shown) [MK-0429] was tested, and the “Effect on cell adhesion, mouse αvβ1-expressing CHOK1-α5KO cells” value (CHOK1-α5KO-mαvβ1 cells) was “potently reduced”, the “Inhibition of latent TGFβ activation, mouse αvβ6 co-culture” value (mouse αvβ6) was “strong inhibitory effect” and the IC50 (human αvβ1; Fig. 3D, assay optimisation, read-out: IC50 human αvβ1 AlphaLISA) was 0.46 nM. It also gave an IC50 (human αvβ1; Fig. 4B, read-out: IC50 Human integrin AlphaLISA assays: hαvβ1) of 1 nM.
